Values of other authors, collected in US8905760B2, “Methods and systems for progressively treating and controlling oral periopathogens causing systemic inflammations” (priority 2008, dated 2014).
Structures can show the parent of a compound that is named as a salt.

Details: IPT group: standard periodontal therapy with adjunctive local delivery of minocycline-HCl (Arestin); N=20; P<0.0001, t test

CN(C)c1ccc(O)c2c1C[C@H]1C[C@H]3[C@H](N(C)C)C(O)=C(C(N)=O)C(=O)[C@@]3(O)C(O)=C1C2=O [minocycline-HCl]
reduction of periodontal lesions after therapy (mean difference): 60±23
